Data from patent US20040198639A1, “Preserved and stable compositions containing peptide copper complexes and methods related thereto” (ProCyte Corporation, priority 2003, published 2004).

Test: Storage stability of Example 1 solution: amounts of peptide copper complex and preservatives over time
Assay type: physicochemical
Protocol: The preservatives used are non-formaldehyde-donating preservatives. The solution was placed in a series of small sealed glass vials and stored at room temperature, at 40° C. and at 50° C. At various measured times, the amount of the peptide copper complex and of the preservatives was determined.

Compound	Amounts when Stored at 40° C. (0 weeks)	Amounts when Stored at 40° C. (1 week)	Amounts when Stored at 40° C. (2 weeks)	Amounts when Stored at 40° C. (3 weeks)	Amounts when Stored at 40° C. (4 weeks)	Amounts when Stored at 50° C. (0 weeks)	Amounts when Stored at 50° C. (1 week)	Amounts when Stored at 50° C. (2 weeks)	Amounts when Stored at 50° C. (3 weeks)	Amounts when Stored at 50° C. (4 weeks)	Amounts when Stored at Room Temperature (0 weeks)	Amounts when Stored at Room Temperature (1 week)	Amounts when Stored at Room Temperature (2 weeks)	Amounts when Stored at Room Temperature (3 weeks)	Amounts when Stored at Room Temperature (4 weeks)	Amounts when Stored at Room Temperature (28 weeks)
CCCOC(=O)c1ccc(O)cc1 [Propylparaben, propylparaben]	0.18 mg/mL	0.18 mg/mL	0.18 mg/mL	0.18 mg/mL	0.18 mg/mL	0.18 mg/mL	0.18 mg/mL	0.17 mg/mL	0.17 mg/mL	0.17 mg/mL	0.18 mg/mL	0.18 mg/mL	0.18 mg/mL	0.18 mg/mL	0.18 mg/mL	0.18 mg/mL
glycyl-L-histidyl-L-lysine:copper(II)	1.06 mg/mL	1.04 mg/mL	1.07 mg/mL	1.06 mg/mL	1.06 mg/mL	1.06 mg/mL	1.05 mg/mL	1.04 mg/mL	1.04 mg/mL	1.04 mg/mL	1.06 mg/mL	1.05 mg/mL	1.06 mg/mL	1.07 mg/mL	1.07 mg/mL	1.05 mg/mL
COC(=O)c1ccc(O)cc1 [Methylparaben, methylparaben]	1.83 mg/mL	1.79 mg/mL	1.80 mg/mL	1.77 mg/mL	1.75 mg/mL	1.83 mg/mL	1.77 mg/mL	1.70 mg/mL	1.65 mg/mL	1.63 mg/mL	1.83 mg/mL	1.81 mg/mL	1.84 mg/mL	1.82 mg/mL	1.81 mg/mL	1.80 mg/mL
